How the values were obtained:
[1] = target: T1, Phospholipase D1 (Homo sapiens, UniProt Q13393); experiment: Inhibition of PLD1 in human Calu1 cells; type: cell-based, Calu-1
T1 sequence (Q13393 whole entry): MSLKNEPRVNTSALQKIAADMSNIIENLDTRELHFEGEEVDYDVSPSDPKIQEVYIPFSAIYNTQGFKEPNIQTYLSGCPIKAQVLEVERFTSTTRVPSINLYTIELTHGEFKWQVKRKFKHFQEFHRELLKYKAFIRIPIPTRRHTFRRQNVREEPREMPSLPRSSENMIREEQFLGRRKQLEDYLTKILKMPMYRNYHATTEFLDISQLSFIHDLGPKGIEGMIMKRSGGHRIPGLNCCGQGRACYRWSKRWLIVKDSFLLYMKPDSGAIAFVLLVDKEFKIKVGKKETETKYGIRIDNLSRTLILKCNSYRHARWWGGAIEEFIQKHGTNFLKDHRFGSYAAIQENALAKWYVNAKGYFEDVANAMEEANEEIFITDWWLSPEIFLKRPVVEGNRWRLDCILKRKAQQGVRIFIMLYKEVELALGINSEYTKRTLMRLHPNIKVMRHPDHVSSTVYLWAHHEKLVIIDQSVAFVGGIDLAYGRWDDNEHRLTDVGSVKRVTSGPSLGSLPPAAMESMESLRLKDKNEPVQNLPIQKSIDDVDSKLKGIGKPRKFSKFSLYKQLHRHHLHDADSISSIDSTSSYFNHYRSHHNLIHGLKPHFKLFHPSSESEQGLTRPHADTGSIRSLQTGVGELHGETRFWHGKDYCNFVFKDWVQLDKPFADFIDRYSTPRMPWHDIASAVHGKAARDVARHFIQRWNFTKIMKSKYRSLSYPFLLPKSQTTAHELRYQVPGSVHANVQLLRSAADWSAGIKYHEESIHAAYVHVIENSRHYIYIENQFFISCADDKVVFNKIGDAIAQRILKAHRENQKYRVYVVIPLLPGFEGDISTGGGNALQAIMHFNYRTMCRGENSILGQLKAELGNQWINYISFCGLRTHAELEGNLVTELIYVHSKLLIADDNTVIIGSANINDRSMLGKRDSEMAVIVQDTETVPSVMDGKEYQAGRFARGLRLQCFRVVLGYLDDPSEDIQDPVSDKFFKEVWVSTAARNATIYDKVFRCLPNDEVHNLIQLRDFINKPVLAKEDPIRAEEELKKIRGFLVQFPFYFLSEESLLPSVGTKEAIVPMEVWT

[2] = target: Phospholipase D2 (Homo sapiens, UniProt O14939); experiment: Inhibition of GFP-labeled PLD2 in human HEK293 cells; type: cell-based
Phospholipase D2, sequence (O14939 whole entry): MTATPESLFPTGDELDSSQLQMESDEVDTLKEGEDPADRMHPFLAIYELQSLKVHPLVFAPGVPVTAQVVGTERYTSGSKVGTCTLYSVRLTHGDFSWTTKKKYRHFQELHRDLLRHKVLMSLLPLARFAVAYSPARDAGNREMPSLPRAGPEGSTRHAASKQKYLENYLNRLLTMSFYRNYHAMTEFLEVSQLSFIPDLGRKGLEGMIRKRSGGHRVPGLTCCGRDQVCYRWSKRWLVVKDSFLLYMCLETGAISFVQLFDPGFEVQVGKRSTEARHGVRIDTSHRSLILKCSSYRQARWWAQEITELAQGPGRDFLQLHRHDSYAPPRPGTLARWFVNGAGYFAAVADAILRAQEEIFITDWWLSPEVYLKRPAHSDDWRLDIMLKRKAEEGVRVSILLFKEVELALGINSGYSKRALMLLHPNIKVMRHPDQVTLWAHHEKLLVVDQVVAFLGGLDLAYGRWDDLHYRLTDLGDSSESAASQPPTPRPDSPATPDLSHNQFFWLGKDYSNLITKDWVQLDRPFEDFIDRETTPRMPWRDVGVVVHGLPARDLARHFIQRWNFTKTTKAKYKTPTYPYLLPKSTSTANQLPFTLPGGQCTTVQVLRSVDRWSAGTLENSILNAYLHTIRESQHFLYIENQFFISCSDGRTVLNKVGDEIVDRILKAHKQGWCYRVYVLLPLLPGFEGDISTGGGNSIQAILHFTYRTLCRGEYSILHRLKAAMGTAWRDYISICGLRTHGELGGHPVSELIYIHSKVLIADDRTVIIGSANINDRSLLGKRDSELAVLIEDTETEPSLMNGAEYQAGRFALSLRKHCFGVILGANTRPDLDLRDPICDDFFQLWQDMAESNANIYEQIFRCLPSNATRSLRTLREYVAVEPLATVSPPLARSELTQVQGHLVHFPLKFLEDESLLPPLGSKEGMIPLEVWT

[3] = system: HEK293; experiment: Selectivity for PLD1 in human Calu1 cells over GFP-labeled PLD2 in human HEK293 cells; type: cell-based

| SMILES | IC50 [1] [µM] | IC50 [2] [µM] | fold change (FC) [3] |
| --- | --- | --- | --- |
| C[C@@H](CN1CCC2(CC1)C(=O)NCN2c1ccccc1)NC(=O)[C@H]1C[C@@H]1c1ccccc1 | 2.6 | 30 |  |
| O=C(NCCN1CCC2(CC1)C(=O)NCN2c1ccccc1)c1ccc2ccccc2c1 |  |  | 9 |
| O=C(NCCN1CCC2(CC1)C(=O)NCN2c1ccccc1)c1cnc2ccccc2n1 | > 20 | > 20 |  |
| O=C(NCCN1CCC(n2c(=O)[nH]c3ccccc32)CC1)c1ccc2ccccc2c1 |  |  | > 1700 |
| COc1cc(C(=O)NCCN2CCC3(CC2)C(=O)NCN3c2ccccc2)ccc1N | 5.9 | 0.55 |  |
| O=C(NCCN1CCC2(CC1)C(=O)NCN2c1ccccc1)[C@H]1C[C@@H]1c1ccccc1 (relative stereo) | > 20 | > 20 |  |
| Cc1cccc(C(=O)N[C@@H](C)CN2CCC3(CC2)C(=O)NCN3c2ccccc2)c1 | 3.4 | 27 |  |
| C[C@@H](CN1CCC2(CC1)C(=O)NCN2c1ccccc1)NC(=O)c1ccc(F)c(F)c1 | 0.15 | 0.2 |  |
| O=C(NCCN1CCC2(CC1)C(=O)NCN2c1ccccc1)c1cc2ccccc2s1 | 0.15 | 0.03 |  |
| O=C(C#Cc1ccccc1)NCCN1CCC2(CC1)C(=O)NCN2c1ccccc1 | 2.1 | 1.6 |  |

From ChEMBL document CHEMBL1153994
